What was measured:
Assay in all cases: combination Emax (second highest fraction inhibited in the dose matrix, 72 h); higher = more inhibition; extreme values may be limits of the assay
[1] = system: SW626 (Colorectal Carcinoma)
How it was run: (§1)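 After 24 hours at 37°C and 5% CO2 in 1536-well plates, cells in DMEM/F12 or RPMI plus 10% FBS received two-drug dose matrices for 72 hours. Viability came from CellTiter-Glo 2.0 luminescence and was scaled as inhibition, anchored at 0 by vehicle wells and at 1 by blank wells. Combination Emax is taken as the second-highest inhibition in the matrix, and Bliss excess as the observed combination effect less EA + EB − EA·EB, with EA and EB the single-agent effects.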

[2] = system: Hs-633T (Other Solid Carcinomas)
How it was run: as §1

[3] = system: OC-314 (Ovarian Carcinoma)
How it was run: as §1

[4] = system: HO-1-u-1 (Oral Cavity Carcinoma)
How it was run: as §1

[5] = system: CAPAN-1 (Pancreatic Carcinoma)
How it was run: as §1

[6] = system: SW1116 (Colorectal Carcinoma)
How it was run: as §1

[7] = system: K5 (Thyroid Gland Carcinoma)
How it was run: as §1

[8] = system: CTB-1 (B-Cell Non-Hodgkin's Lymphoma)
How it was run: as §1

[9] = system: OVCAR-8 (Ovarian Carcinoma)
How it was run: as §1

[10] = system: HDLM-2 (Hodgkin's Lymphoma)
How it was run: as §1

NCI-H28 (Mesothelioma) = system: NCI-H28 (Mesothelioma)
How it was run: as §1

Mewo (Melanoma) = system: Mewo (Melanoma)
How it was run: as §1

[11] = system: TE-4 (Esophageal Squamous Cell Carcinoma)
How it was run: as §1

[12] = system: LB771-HNC (Head and Neck Carcinoma)
How it was run: as §1

[13] = system: KARPAS-231 (B-Cell Non-Hodgkin's Lymphoma)
How it was run: as §1

HMV-II (Melanoma) = system: HMV-II (Melanoma)
How it was run: as §1

[14] = system: MHH-PREB-1 (B-Cell Non-Hodgkin's Lymphoma)
How it was run: as §1

[15] = system: KYSE-410 (Esophageal Squamous Cell Carcinoma)
How it was run: as §1

[16] = system: MDA-MB-468 (Breast Carcinoma)
How it was run: as §1

[17] = system: LU-139 (Small Cell Lung Carcinoma)
How it was run: as §1

SMILES	combination Emax [1]	combination Emax [2]	combination Emax [3]	combination Emax [4]	combination Emax [5]	combination Emax [6]	combination Emax [7]	combination Emax [8]	combination Emax [9]	combination Emax [10]	combination Emax (NCI-H28 (Mesothelioma))	combination Emax (Mewo (Melanoma))	combination Emax [11]	combination Emax [12]	combination Emax [13]	combination Emax (HMV-II (Melanoma))	combination Emax [14]	combination Emax [15]	combination Emax [16]	combination Emax [17]
Cc1c2c(nn1C)CSCc1cc(n(C)n1)CSc1cc(c3ccccc3c1)OCCCc1c(C(=O)O)n(C)c3c-2c(Cl)ccc13 [AZD5991] + Cn1cnc2c(F)c(Nc3ccc(Br)cc3Cl)c(C(=O)NOCCO)cc21 [Selumetinib] (first compound max 1 µM, 7x7, partner max 3 µM)	0.528	0.64	0.245	0.292	0.381	0.446	0.739	0.203	0.255	0.995	0.316	0.475	0.453	0.429	1	0.829	0.13	0.331	0.595	0.148
CN(C)CCCOc1ccc(-c2ccc3ncc4c(c3c2)n(C2CCOCC2)c(=O)n4C)cn1 [AZD0156] + CCN(CCO)CCCOc1ccc2c(Nc3cc(CC(=O)Nc4cccc(F)c4)[nH]n3)ncnc2c1 [AZD2811] (first compound max 1 µM, 7x7, partner max 1 µM)	0.0884	0.373	0.312	0.209	0.137	0.0823	0.244	0.501	0.26	0.178	0.149	0.153	0.071	0.142	0.563	0.164	0.154	0.0555	0.363	0.279
CN(C)CCCOc1ccc(-c2ccc3ncc4c(c3c2)n(C2CCOCC2)c(=O)n4C)cn1 [AZD0156] + C=CCn1c(=O)c2cnc(Nc3ccc(N4CCN(C)CC4)cc3)nc2n1-c1cccc(C(C)(C)O)n1 [AZD1775] (first compound max 1 µM, partner max 1 µM)	0.508	0.769	0.515	0.77	0.394	0.235	0.424	0.898	0.8	0.721	0.434	0.47	0.324	0.557	0.988	0.401	0.844	0.32	0.42	0.59
Cc1cc2ncnn2cc1Nc1ncc2c(n1)n(C1CCOCC1)c(=O)n2C [AZD7648] + C=CCn1c(=O)c2cnc(Nc3ccc(N4CCN(C)CC4)cc3)nc2n1-c1cccc(C(C)(C)O)n1 [AZD1775] (first compound max 10 µM, partner max 1 µM)	0.513	0.748	0.567	0.617	0.5	0.295	0.665	0.905	0.81	0.585	0.42	0.427	0.431	0.455	0.979	0.521	0.823	0.361	0.526	0.615

— the supplement of paper PMC11061612
